Experimental data taken from PMC9789325, “Inhibition kinetics, molecular docking, and stability studies of the effect of papain-generated peptides from palm kernel cake proteins on angiotensin-converting enzyme (ACE)” (Food Chemistry: Molecular Sciences, 2022).
“Also recorded” adds a separate entry of the source. Where two headings read alike, the source gives them in different places. Residues, ends and D or L forms follow the SMILES beside them. No end group written: not given here.

Key:
[1] = molecular target: T1, ACE (Oryctolagus cuniculus, UniProt P12822); test: Kinetics study of ACE inhibition (Lineweaver-Burk / Michaelis-Menten, HHL 15 to 4000 µM); format: biochemical, rabbit; details: from plot of 1/Vmax against inhibitor concentration; read-out: Kiu (enzyme-inhibitor dissociation constant)
T1 construct: the angiotensin-I-converting enzyme from rabbit lung (2 units/mg protein); purchased Sigma Chemical Co. (St. Louis, MO, USA); host or cells: rabbit lung (tissue-derived)
T1 sequence (P12822 34-1310): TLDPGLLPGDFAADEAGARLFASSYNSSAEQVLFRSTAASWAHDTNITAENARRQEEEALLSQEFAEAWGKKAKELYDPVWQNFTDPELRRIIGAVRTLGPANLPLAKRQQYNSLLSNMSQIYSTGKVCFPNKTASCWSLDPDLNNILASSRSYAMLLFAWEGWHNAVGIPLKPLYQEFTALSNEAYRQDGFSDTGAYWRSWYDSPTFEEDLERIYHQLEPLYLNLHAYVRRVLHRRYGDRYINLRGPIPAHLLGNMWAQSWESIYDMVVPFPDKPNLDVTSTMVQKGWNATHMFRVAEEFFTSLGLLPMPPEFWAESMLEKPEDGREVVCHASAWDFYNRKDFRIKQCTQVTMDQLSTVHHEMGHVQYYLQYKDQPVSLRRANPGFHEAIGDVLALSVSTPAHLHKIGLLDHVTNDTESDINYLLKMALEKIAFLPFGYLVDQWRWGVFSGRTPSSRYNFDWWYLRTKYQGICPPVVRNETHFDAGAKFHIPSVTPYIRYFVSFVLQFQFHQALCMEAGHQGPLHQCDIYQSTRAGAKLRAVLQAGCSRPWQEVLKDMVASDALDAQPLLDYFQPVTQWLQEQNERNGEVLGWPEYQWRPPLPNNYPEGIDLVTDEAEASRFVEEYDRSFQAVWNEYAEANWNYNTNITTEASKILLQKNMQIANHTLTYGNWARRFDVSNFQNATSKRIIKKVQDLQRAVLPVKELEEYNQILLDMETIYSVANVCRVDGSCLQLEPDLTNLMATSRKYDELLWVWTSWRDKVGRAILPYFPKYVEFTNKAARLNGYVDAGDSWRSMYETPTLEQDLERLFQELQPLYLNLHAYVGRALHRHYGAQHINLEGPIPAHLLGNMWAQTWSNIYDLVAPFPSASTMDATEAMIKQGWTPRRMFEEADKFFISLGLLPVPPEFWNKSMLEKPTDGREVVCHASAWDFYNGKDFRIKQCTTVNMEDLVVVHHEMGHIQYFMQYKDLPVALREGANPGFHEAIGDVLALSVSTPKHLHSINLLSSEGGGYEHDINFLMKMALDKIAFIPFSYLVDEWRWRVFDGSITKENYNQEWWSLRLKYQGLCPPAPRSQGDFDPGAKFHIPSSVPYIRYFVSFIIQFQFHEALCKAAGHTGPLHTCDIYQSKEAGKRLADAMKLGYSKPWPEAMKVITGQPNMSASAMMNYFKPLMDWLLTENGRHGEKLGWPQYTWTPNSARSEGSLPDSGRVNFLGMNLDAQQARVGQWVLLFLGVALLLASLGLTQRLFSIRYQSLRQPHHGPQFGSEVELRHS
Description: To determine the mode of enzyme inhibition, Lineweaver-Burk plots of 1/v versus 1/[S] were used. ACE inhibition was determined in the presence of five concentrations of HHL from 15 to 4000 µM and four concentrations of peptides, as shown in Table 1.
Enzyme activity was expressed as nmol hippuric acid produced per min of enzymatic reaction. Kiu was calculated from the plot of 1/Vmax against inhibitor concentration at the intercept on the inhibitor concentration axis ([Cornish-Bowden, 2013]). Vmax and Km were calculated using GRAPHPAD PRISM 5 (GraphPad, Software Inc., San Diego, CA). Michaelis-Menten and Lineweaver-Burk plots were also created using the same software.

[2] = molecular target: T2, angiotensin-I-converting enzyme from rabbit lung (Oryctolagus cuniculus, UniProt P12822); test: ACE inhibitory activity evaluation (HHL substrate, hippuric acid read at 410 nm); format: biochemical; details: for ACE inhibitory activity (%): Table 5; for ACE-inhibitory capacity (%) With pre-incubation: with pre-incubation with ACE (3 h); for ACE-inhibitory capacity (%) Without pre-incubation: without pre-incubation with ACE
T2 construct: the angiotensin-I-converting enzyme from rabbit lung (2 units/mg protein); purchased Sigma Chemical Co. (St. Louis, MO, USA); host or cells: rabbit lung (tissue-derived)
T2 sequence (P12822 34-1310): T1 sequence (P12822 34-1310)
Description: ACE inhibitory potency of peptides was determined following the method described by [Forghani et al. (2016)]. […] The mixture was incubated with Hippuryl-histidyl-leucine (HHL) solution (50 μL) containing 0.1 M borate buffer pH 8.3 and 0.3 M NaCl at 37 °C for 60 min. To terminate the enzymatic reaction, 75 μL of 1 M HCl was added to the mixture. Subsequently 150 μL of pyridine were layered followed by addition of 75 μL of benzenesulfonyl chloride, and the mixture was vortexed for 1 min before being cooled on ice. The absorbance was recorded at 410 nm using a micro plate reader (Labomed, model UVD-2950, USA Power Wave X 340, Biotek Instruments. Inc.,Winooski, VT, USA). The standard curve of hippuric acid (HA) was constructed by plotting absorbance versus _mol of HA produced in 1 mL of reaction volume.

[3] = molecular target: T1, ACE; test: Effect of ACE on papain-generated peptides: hydrolysis of peptides by ACE followed by RP-HPLC; format: in vitro ADME, rabbit; details: for degradation of the peptide by ACE (in words): after up to 3 h pre-incubation with ACE; for Peaks: number of RP-HPLC peaks; for percentage of peptide cleavage by ACE: over the whole incubation period (0.5 to 3 h); for metabolised at 1 h / metabolised at 2 h / metabolised at 3 h / metabolised at 0.5 h: rabbit, isolated ACE (angiotensin-converting enzyme) solution, read-out: Cleavage (%)
Description: The effect of ACE on papain-generated peptides was analyzed following the method of [Yang et al. (2003)] with some modifications. Briefly, 225 µL of the peptide solution of YGIKVGYAIP,
GGIF, GIFE at concentrations of 2, 4, and 4 mM were separately incubated with 150 µL of ACE (100 mU/mL) at 37 °C. Samples were withdrawn at incubation times of 0, 0.5, 1, 2, and 3 h and kept on ice prior to analysis by HPLC. A 20-µl sample was loaded onto a Hypersil GOLD C18 column (4.6×250 mm) attached to a Shimadzu (Kyoto, Japan) LC 20AT apparatus. The column was conditioned with eluent A (0.1 % TFA in DI) and eluted with 100 % eluent A from 0 to 10 min. The peptides were eluted with eluent B (0.1 % TFA in CH3CN) with a gradient elution of 0–100 % for 10–50 min. The absorbance was read at 215 nm.
To evaluate the possible degrading effects of ACE on the bioactive peptides generated from palm kernel cake proteins prior to examining their inhibitory activity, the peptides were preincubated with ACE in a water bath shaker at 37 °C for 0.5 h, 1 h, 2 h and 3 h, and the resulting peptides were analyzed using RP-HPLC.

[4] = molecular target: ACE; details: literature peptides, read-out: Kiu, cited from earlier work
[5] = incubation with ACE (100 mU/mL) 37 °C, 0.5 h, peptide 2 mM (YGIKVGYAIP), 4 mM (GGIF, GIFE)

| Ki [1] | IC50 [2] | ACE inhibitory activity (%) [2] | ACE-inhibitory capacity (%) With pre-incubation [2] | ACE-inhibitory capacity (%) Without pre-incubation [2] | Peaks ([3]; incubation with ACE 37 °C, 1 h) | Peaks ([3]; incubation with ACE 37 °C, 2 h) | Peaks ([3]; incubation with ACE 37 °C, 3 h) | Peaks [3, 5] | percentage of peptide cleavage by ACE [3] | metabolised at 1 h ([3]; incubation with ACE 37 °C, 1 h) | metabolised at 2 h ([3]; incubation with ACE 37 °C, 2 h) | metabolised at 3 h ([3]; incubation with ACE 37 °C, 3 h) | metabolised at 0.5 h [3, 5] | Cleavage (%) ([3]; incubation with ACE 37 °C, 2 h) | Cleavage (%) [3, 5] | Molecule | degradation of the peptide by ACE (in words) [3] | Ki ([4]; ref He, Aluko & Ju (2014)) | Ki ([4]; ref Girgih, He & Aluko (2014)) |
| --- | --- | --- | --- | --- | --- | --- | --- | --- | --- | --- | --- | --- | --- | --- | --- | --- | --- | --- | --- |
| 1270 µM | 92 µM | 97 ± 2.17% | 87 ± 2.70% | 97 ± 2.18% | 1 | 1 | 1 | 1 | approximately 1.5% | 1 ± 0.2% | 1 ± 0.4% | 2 ± 0.6% | 1 ± 0.1% | – | – | CC[C@H](C)[C@H](NC(=O)CNC(=O)CN)C(=O)N[C@@H](Cc1ccccc1)C(=O)O [GGIF] (H-GGIF-OH; N-terminus and C-terminus assumed) | resistant to ACE; also recorded: resistant and were not degraded | – | – |
| 18000 µM | – | 40 ± 1.00% | 43 ± 1.80% | 40 ± 1.00% | 1 | 1 | 1 | 1 | ~0% | 0% | 0% | 0% | 0% | – | – | CC[C@H](C)[C@H](NC(=O)CN)C(=O)N[C@@H](Cc1ccccc1)C(=O)N[C@@H](CCC(=O)O)C(=O)O [GIFE] (H-GIFE-OH; N-terminus and C-terminus assumed) | resistant; also recorded: resistant and were not degraded | – | – |
| – | – | – | – | – | – | – | – | – | – | – | – | – | – | – | – | RALP | – | 104 µM | – |
| – | – | – | – | – | – | – | – | – | – | – | – | – | – | – | – | WVYY | – | – | 60 µM |
| – | – | – | – | – | – | – | – | – | – | – | – | – | – | – | – | WYT | – | – | 1830 µM |
| 54 µM | 1 µM | 100 ± 3.00% | 93 ± 2.40% | 100 ± 3.00% | 5 | 5 | – | 5 | – | 84 ± 1.6% | 95 ± 3.2% | 98 ± 3.1% | 70 ± 2.2% | 95% | 70% | YGIKVGYAIP [YGIKVGYAIP] | degraded; also recorded: not resistant to ACE | – | – |
